System: acute hypoxia-induced pulmonary hypertension
Assay: Acute hypoxia-induced pulmonary hypertension in rats (mean pulmonary arterial pressure)
Assay type: in vivo, rat
Experimental: Measurement of Pulmonary and Systemic Arterial Pressure
Male Sprague-Dawley rats were obtained from Charles River Breeding Laboratories (Wilmington, Mass.) at 9-10 wk of age. For pulmonary arterial pressure measurement, a closed-chest technique (1-4). Under ketamine (80 mg/kg) and xylazine (5 mg/kg) anesthesia, a small transverse cut was made in the proximal right external jugular vein through passed. The introducer was a blunted 7.5 cm, 19-gauge needle with the tip turned up 30 degrees. The Silastic catheter filled with heparinsaline solution was passed through the introducer and attached by a 25 gauge blunted needle to a pressure transducer (model CP-01, Century Technology, Inglewood, Calif.) coupled to a polygraph (model 7, Grass Instruments, Quincy, Mass.). After the introducer was placed in the right ventricular cavity, the tip was directed anteriorly. The catheter was then advanced into the pulmonary artery. Catheter position was identified by the pressure tracing. The introducer was slipped out over the catheter and removed after a typical pulmonary arterial pressure tracing was recorded. […] One day after catheterization, mean pulmonary arterial pressure (MPAP), mean systemic arterial pressure (MSAP) were recorded through the pulmonary and femora arterial catheters via transducers coupled to the polygraph. […]

CN1CCCC[C@H]1CCc1ccccc1NC(=O)/C=C/c1ccccc1 [Iferanserin, S-2′-[2-(1-methyl-2-piperidyl)ethyl] cinnamanilide]
effect on acute hypoxia-induced pulmonary hypertension (adult male Sprague-Dawley rats, 3 and 10 mg/kg p.o., given 45 min before normobaric hypoxia (10% O2) for 90 min): partially inhibited | dose dependence of the effect on acute hypoxia-induced pulmonary hypertension (adult rats, within the range of 3-10 mg/kg, p.o.): no dose-dependent response

Source: patent US8324247B2, “Method for treating pulmonary arterial hypertension” (Ventrus Biosciences, Inc., priority 2009, dated 2012)
